From patent publication US20260193571A1, “AQUEOUS COMPOSITION CONTAINING CUCURBITURILS” (Clariant International Ltd, priority 2022, published 2026)
In brackets after ≈: the same amount, converted by molar mass.

Experiments:
[1] = Malodor removing effect: headspace GC-MS measurement of odorants; conditions: headspace 60° C. 30 min, no agent/no cucurbiturils = 100
Method: An artificial malodor composition was prepared by mixing 10 mg of 2,3-butanedione, 5 mg of octanal, 30 mg of isovaleraldehyde, 300 mg of isovaleric acid and 50 mg of hexanal in 1 L of water.
The cucurbituril sample contains cucurbit[6]uril (50% by weight), cucurbit[7]uril (35% by weight) and cucurbit[8]uril (10% by weight).
Aqueous cucurbituril composition B: 0.5% by weight of the cucurbituril sample was mixed in water.
1 mL of aqueous cucurbituril composition A or B, 1 mL of malodor composition and 3 mL of water were mixed.
1 mL of 5% by weight of solubilizing agent in water, 1 mL of malodor composition and 3 mL of water were mixed.
4 mL of water and 1 mL of malodor composition were mixed.
The mixtures were prepared in headspace vials. The vials were then closed tightly and analyzed.
Analytical evaluation of malodor in the vials was conducted through a headspace measurement. A Gas Chromatograph Agilent 9000 Intuvo equipped with an autosampler Agilent 7697A equipped with a headspace extracting syringe, a Mass Detector Agilent MSD 5977B was used.
The headspace vials were equilibrated at 60° C. for 30 min at the autosampler before the measurement. A gas phase sample of 1000 μL was extracted from the vial and injected into the GC column. • Carrier gas: Helium 22.7 psi, split 5:1 • Column: DB-624 UI (length 60m, diameter 250 μm, size of film 1.4 μm) • Oven: Initial 40° C.—Hold time 2 mb—Rate 20° C./min—Temperature 260° C. —Hold time 5 min • Mass detector parameter: run in select ion mode. The peak area of each odorant was then integrated and recorded.

[2] = Increasing the solubility of cucurbiturils in water: appearance of aqueous compositions comprising cucurbiturils; assay type: physicochemical; conditions: 0.2 percent by weight cucurbituril sample, 25° C.
Method: Compositions consisting of the cucurbituril sample and water and compositions consisting of the cucurbituril sample, other substances but no solubilizing agents according to component Z2) of the inventive aqueous compositions, and water were prepared and used as comparative compositions.

[3] = in water at room temperature (25° C.); cited from earlier work
[4] = mixture contains cucurbiturils: 1 mL composition A (5% agent + 0.5% cucurbituril sample) or B (0.5% sample only) + 1 mL malodor composition + 3 mL water
[5] = mixture without cucurbiturils: 1 mL of 5% by weight solubilizing agent + 1 mL malodor composition + 3 mL water
[6] = substance at 5 percent by weight in water
[7] = substance at 10 percent by weight in water

For lauramine oxide [Genaminox LA], which “Relative peak area 2,3-butadione” value [1, 4] is on record?
The value was 11.

What about the “Relative peak area hexanal” value [1, 4] of the same compound?
The value was 9.

And the “Relative peak area isovaleraldehyde” value [1, 4]?
The value was 6.

And the “Relative peak area isovaleric acid” value [1, 4]?
The value was 3.

And the “Relative peak area octanal” value [1, 4]?
The value was 73.

And the “Relative peak area 2,3-butadione” value [1, 5]?
The value was 181.

What about the “Relative peak area hexanal” value [1, 5] of the same compound?
The value was 203.

What about the “Relative peak area isovaleraldehyde” value [1, 5] of the same compound?
Its value is 182.

And the “Relative peak area isovaleric acid” value [1, 5]?
Its value is 10.

What about the “Relative peak area octanal” value [1, 5] of the same compound?
Its value is 134.

What about the Appearance [2, 6] of the same compound?
The Appearance was “clear”.

Which Appearance [2, 7] does the source give for `CC(O)CO` (stereo not shown) [Propylene glycol] here?
Its Appearance is “very turbid”.

Which water solubility [3] does the source give for `O=C1N2CN3C(=O)N4CN5C(=O)N6CN7C(=O)N8CN9C(=O)N%10CN%11C(=O)N%12CN1C1C2N2CN%13C(=O)N(CN%14C(=O)N(CN%15C(=O)N(CN%16C(=O)N(CN%17C(=O)N(CN1C2=O)C%12C%11%17)C%10C9%16)C8C7%15)C6C5%14)C4C3%13` (stereo not shown) [cucurbit[6]uril] here?
Its water solubility is 18 µg/mL (≈ 18.1 µM).

Which water solubility [3] does the source give for `O=C1N2CN3C(=O)N4CN5C(=O)N6CN7C(=O)N8CN9C(=O)N%10CN%11C(=O)N%12CN%13C(=O)N%14CN%15C(=O)N%16CN1C1C2N2CN%17C(=O)N(CN%18C(=O)N(CN%19C(=O)N(CN%20C(=O)N(CN%21C(=O)N(CN%22C(=O)N(CN%23C(=O)N(CN1C2=O)C%16C%15%23)C%14C%13%22)C%12C%11%21)C%10C9%20)C8C7%19)C6C5%18)C4C3%17` (stereo not shown) [cucurbit[8]uril] here?
The water solubility was 17 µg/mL (≈ 12.8 µM).

With Sodium laureth sulfate as the compound, how does the Appearance [2, 6] read?
Its Appearance is “very turbid”.

For Alkylbenzene sulfonate, which Appearance [2, 6] is on record?
Its Appearance is “very turbid”.

Which Appearance [2, 7] does the source give for `CCO` [Ethanol] here?
The Appearance was “very turbid”.

Which Appearance [2, 7] does the source give for `[Ca+2].[Cl-].[Cl-]` [CaCl2] here?
Its Appearance is “very turbid”.

With C12/14 alkyl ethoxylate with 8 EO as the compound, how does the Appearance [2, 6] read?
Its Appearance is “very turbid”.
